Legend:
FLT3-ITD = target: T1, FLT3-ITD (Homo sapiens, UniProt P36888); experiment: FLT3-ITD LanthaScreen assay; format: biochemical; details: Table 4
T1 sequence (P36888 1-993): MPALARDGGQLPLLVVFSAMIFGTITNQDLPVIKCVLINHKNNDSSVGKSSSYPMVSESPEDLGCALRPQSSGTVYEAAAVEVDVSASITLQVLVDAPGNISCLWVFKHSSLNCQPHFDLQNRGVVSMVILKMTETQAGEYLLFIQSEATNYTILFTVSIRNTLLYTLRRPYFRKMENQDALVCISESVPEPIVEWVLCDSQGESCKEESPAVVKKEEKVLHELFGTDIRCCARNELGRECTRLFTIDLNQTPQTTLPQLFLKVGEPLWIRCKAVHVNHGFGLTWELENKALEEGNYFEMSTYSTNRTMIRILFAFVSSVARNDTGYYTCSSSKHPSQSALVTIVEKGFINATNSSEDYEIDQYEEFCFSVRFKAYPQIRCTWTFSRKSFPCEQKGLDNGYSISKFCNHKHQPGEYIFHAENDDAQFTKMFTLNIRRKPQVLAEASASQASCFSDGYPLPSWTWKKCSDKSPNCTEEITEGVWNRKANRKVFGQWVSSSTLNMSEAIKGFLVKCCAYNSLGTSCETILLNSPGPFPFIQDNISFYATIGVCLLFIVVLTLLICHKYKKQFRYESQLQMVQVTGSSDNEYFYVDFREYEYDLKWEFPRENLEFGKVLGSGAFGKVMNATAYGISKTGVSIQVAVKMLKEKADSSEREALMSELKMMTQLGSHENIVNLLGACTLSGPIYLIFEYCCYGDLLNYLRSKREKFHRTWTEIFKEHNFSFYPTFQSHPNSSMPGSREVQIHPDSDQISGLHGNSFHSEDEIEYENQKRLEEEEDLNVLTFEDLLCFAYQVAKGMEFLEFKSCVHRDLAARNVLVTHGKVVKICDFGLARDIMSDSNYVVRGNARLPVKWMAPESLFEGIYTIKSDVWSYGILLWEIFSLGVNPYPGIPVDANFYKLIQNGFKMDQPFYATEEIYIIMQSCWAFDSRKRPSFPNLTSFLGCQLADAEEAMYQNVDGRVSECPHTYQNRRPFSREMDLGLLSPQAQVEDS
Description: (§1) FLT3/FLT3-ITD LanthaScreen Assays
(§2) Assays were performed in a 10 μl-volume in 384-well polypropylene microplates (Perkin Elmer Proxiplate, cat. No. 6059480) at ambient temperature. Optimized 1× assay buffer was 50 mM Hepes pH 7.5, 2 mM DTT, 0.01% Tween, 0.01% BSA, 10 mM MgCl2. For compound screening FLT3 (final concentration, f.c.=[…]) or FLT3-ITD (f.c.=[…]) was added using a Multidrop Combi (ThermoFisher Scientific, Waltham, MA) and preincubated for 10 min. Reactions were started by adding fluorescein-poly GT (f.c.=200 nM) and ATP (f.c.=57 μM) substrates. Reactions proceeded for 40 minutes. The reactions were stopped with a detection mixture of EDTA (f.c.=20 mM) and terbium-conjugated anti-phoso tyrosine antibody pY20 (f.c.=2 nM). The plates were sealed and read on an Envision (PerkinElmer, Waltham, MA) using 340 nm excitation and emission reads at 495 and 520 nM.

METTL3/METTL14 = METTL3/METTL14 (Homo sapiens, UniProt Q86U44); experiment: METTL3-14 standard enzyme assay (3H-SAM flashplate); details: Table 4; METTL3 biochemical assay
Procedure, shortened: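 Radiometric methyltransferase read-out: after quenching with excess unlabelled SAM (15 μM), biotinylated RNA was captured on streptavidin flashplates (2 h, 25° C) and counted. Reactions contained 2.5 nM enzyme (5 min preincubation), 100 nM RNA and 100 nM 3H-SAM, ran 30 min in HEPES pH 7.5 buffer with KCl, MgCl2, DTT.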

FLT3 = target: T2, FLT3 (Homo sapiens, UniProt P36888); experiment: FLT3 LanthaScreen assay; format: biochemical; details: Table 4
T2 sequence (P36888 27-993): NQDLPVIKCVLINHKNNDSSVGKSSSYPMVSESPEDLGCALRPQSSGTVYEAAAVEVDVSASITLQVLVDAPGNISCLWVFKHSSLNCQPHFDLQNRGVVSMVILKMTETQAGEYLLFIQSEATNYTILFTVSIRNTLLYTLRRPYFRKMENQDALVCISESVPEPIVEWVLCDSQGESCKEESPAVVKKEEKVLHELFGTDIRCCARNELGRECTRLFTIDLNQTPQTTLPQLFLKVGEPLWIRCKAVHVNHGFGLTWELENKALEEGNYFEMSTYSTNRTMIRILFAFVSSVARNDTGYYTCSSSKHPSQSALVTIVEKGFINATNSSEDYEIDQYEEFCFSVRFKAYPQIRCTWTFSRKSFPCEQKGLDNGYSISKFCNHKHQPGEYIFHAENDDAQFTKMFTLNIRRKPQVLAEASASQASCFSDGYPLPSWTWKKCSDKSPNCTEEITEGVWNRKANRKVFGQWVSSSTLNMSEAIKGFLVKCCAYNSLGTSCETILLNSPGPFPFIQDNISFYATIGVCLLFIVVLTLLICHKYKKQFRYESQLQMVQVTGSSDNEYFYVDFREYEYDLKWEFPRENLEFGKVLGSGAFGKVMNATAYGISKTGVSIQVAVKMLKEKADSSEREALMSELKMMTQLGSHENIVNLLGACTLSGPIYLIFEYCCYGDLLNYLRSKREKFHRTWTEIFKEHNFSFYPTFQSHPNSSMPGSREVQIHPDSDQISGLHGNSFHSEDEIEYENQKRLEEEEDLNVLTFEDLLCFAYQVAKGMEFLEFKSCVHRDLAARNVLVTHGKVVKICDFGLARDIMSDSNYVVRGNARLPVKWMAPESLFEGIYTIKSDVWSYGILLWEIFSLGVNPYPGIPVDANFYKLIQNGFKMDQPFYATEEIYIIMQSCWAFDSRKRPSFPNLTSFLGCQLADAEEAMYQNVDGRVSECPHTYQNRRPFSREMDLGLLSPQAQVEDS
Description: as §1, §2

PRMT5-MEP50 = PRMT5-MEP50 (Homo sapiens, UniProt O14744); experiment: PRMT5 assay (3H-SAM flashplate); details: Table 4; PRMT5 biochemical assay
Procedure, shortened: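 Radiometric methyl-transfer read-out: 3H-methyl transferred to a 3′-biotinylated, acetylated H4 peptide substrate (100 nM) from 3H-SAM (250 nM), captured on streptavidin scintillation plates. Enzyme complex 2.5 nM, pH 8.0 Tris buffer with DTT and Tween, compound preincubation 5 min, 60 min reaction stopped with excess unlabeled SAM.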

Sequence of METTL3/METTL14 (Q86U44 whole entry, species assumed): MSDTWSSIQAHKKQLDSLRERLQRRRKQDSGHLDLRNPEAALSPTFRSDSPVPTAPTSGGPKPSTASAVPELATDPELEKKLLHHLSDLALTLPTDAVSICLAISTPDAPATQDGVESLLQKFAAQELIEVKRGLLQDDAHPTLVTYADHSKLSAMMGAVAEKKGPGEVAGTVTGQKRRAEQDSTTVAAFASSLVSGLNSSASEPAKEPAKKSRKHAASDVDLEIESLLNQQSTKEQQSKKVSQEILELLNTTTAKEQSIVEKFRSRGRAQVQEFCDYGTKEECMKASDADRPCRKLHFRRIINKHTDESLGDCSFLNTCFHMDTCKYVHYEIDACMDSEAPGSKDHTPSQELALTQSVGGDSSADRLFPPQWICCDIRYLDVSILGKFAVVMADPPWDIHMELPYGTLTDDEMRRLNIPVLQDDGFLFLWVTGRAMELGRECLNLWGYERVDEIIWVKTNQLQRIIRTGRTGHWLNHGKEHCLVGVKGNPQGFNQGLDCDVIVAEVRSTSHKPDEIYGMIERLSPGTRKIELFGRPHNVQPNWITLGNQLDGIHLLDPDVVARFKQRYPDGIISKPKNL
Sequence of METTL3/METTL14 (Q9HCE5 whole entry partner, species assumed): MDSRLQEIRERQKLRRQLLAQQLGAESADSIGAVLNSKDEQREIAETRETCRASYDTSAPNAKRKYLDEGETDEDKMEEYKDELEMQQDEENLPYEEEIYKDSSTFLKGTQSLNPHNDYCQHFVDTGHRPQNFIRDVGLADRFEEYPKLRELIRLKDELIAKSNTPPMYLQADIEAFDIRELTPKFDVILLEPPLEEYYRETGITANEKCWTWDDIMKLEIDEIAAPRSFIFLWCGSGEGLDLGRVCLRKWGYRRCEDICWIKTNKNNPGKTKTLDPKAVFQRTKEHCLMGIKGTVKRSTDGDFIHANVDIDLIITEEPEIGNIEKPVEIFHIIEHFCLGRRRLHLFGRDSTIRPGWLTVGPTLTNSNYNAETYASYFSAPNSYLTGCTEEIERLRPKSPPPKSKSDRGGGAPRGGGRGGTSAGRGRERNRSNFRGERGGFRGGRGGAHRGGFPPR
Sequence of PRMT5-MEP50 (O14744 whole entry): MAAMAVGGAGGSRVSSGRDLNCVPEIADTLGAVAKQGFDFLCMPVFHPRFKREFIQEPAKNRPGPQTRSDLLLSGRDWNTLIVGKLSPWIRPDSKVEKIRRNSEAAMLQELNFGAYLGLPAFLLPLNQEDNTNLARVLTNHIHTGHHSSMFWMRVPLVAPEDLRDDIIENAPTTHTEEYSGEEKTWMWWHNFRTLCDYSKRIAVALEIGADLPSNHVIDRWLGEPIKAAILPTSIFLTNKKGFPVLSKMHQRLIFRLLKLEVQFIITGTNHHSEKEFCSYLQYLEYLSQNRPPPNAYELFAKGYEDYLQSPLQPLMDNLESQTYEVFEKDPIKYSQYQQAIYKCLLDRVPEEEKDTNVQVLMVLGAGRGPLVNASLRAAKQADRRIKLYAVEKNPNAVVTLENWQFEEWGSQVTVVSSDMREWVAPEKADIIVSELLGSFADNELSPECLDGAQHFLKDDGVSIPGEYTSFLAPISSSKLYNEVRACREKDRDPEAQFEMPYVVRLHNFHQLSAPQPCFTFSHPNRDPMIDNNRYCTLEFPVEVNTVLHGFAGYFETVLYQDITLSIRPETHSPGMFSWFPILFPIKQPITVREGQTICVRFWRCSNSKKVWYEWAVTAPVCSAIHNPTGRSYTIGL
Sequence of PRMT5-MEP50 (Q9BQA1 whole entry partner): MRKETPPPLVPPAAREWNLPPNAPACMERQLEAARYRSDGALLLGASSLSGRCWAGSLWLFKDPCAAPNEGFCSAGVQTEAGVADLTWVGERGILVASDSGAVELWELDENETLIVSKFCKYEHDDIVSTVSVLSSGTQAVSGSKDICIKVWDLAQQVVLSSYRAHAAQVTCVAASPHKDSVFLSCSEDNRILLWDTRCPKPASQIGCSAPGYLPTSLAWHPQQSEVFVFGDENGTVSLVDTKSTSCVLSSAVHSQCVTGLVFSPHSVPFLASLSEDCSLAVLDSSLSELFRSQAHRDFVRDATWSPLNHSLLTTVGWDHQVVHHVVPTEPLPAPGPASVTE

Row | SMILES | IC50 (FLT3-ITD) | IC50 (METTL3/METTL14) | IC50 (FLT3) | IC50 (PRMT5-MEP50)
1 | CN1CCC(NC(=O)[C@H]2O[C@@H](n3cc(C4CCCO4)c4c(N)ncnc43)[C@H](O)[C@@H]2O)CC1 (stereo partly drawn) [Compound I-53, (2S,3S,4R,5R)-5-[4-amino-5-(oxolan-2-yl)-7H-pyrrolo[2,3-d]pyrimidin-7-yl]-3,4-dihydroxy-N-(1-methylpiperidin-4-yl)oxolane-2-carboxamide] | ≥ 1 µM | 0.1 to 1 µM | ≥ 1 µM | 0.1 to 1 µM
2 | Cn1ccc(-c2cn([C@@H]3O[C@H](C(N)=O)[C@@H](O)[C@H]3O)c3ncnc(N)c23)n1 [Compound I-54] | ≥ 1 µM | ≥ 1 µM | ≥ 1 µM | 0.1 to 1 µM
3 | CN1CCC(NC(=O)[C@H]2O[C@@H](n3cc(C4CCCC4)c4c(N)ncnc43)[C@H](O)[C@@H]2O)CC1 [Compound I-56, (2S,3S,4R,5R)-5-(4-amino-5-cyclopentyl-7H-pyrrolo[2,3-d]pyrimidin-7-yl)-3,4-dihydroxy-N-(1-methylpiperidin-4-yl)tetrahydrofuran-2-carboxamide] | ≥ 1 µM | 0.1 to 1 µM | ≥ 1 µM | 0.1 to 1 µM
4 | COCCn1ccc(-c2cn([C@@H]3O[C@H](C(=O)NC4CCN(C)CC4)[C@@H](O)[C@H]3O)c3ncnc(N)c23)n1 [Compound I-57, (2S,3S,4R,5R)-5-(4-amino-5-(1-(2-methoxyethyl)-1H-pyrazol-3-yl)-7H-pyrrolo[2,3-d]pyrimidin-7-yl)-3,4-dihydroxy-N-(1-methylpiperidin-4-yl)tetrahydrofuran-2-carboxamide] | ≥ 1 µM | 0.1 to 1 µM | ≥ 1 µM | 0.1 to 1 µM
5 | CNc1ccc2ccc(NC(=O)[C@H]3O[C@@H](n4cc(-c5ccn(C)n5)c5c(N)ncnc54)[C@@H](F)[C@@H]3O)cc2n1 [Compound I-61] | 0.1 to 1 µM | < 0.01 µM | 0.1 to 1 µM | 0.01 to 0.1 µM
6 | CNc1ccc2ccc(NC(=O)[C@H]3O[C@@H](n4ccc5c(N)ncnc54)[C@@H](F)[C@@H]3O)cc2n1 [Compound I-62] | ≥ 1 µM | 0.1 to 1 µM | ≥ 1 µM | < 0.01 µM
7 | CNC(=O)Nc1cc(NC(=O)[C@H]2O[C@@H](n3cc(-c4ccn(C)n4)c4c(N)ncnc43)[C@H](O)[C@@H]2O)ccn1 [Compound I-143] | ≥ 1 µM | 0.1 to 1 µM | ≥ 1 µM | 0.01 to 0.1 µM
8 | CN1CCC(N(CCC#N)C(=O)[C@H]2O[C@@H](n3cc(-c4ccn(C)n4)c4c(N)ncnc43)[C@H](O)[C@@H]2O)CC1 [Compound I-144] | ≥ 1 µM | 0.1 to 1 µM | ≥ 1 µM | 0.01 to 0.1 µM
9 | CN1CCC(N(CCCO)C(=O)[C@H]2O[C@@H](n3cc(-c4ccn(C)n4)c4c(N)ncnc43)[C@H](O)[C@@H]2O)CC1 [Compound I-145] | ≥ 1 µM | 0.1 to 1 µM | ≥ 1 µM | < 0.01 µM
10 | CN1CCC(N(CCCN)C(=O)[C@H]2O[C@@H](n3cc(-c4ccn(C)n4)c4c(N)ncnc43)[C@H](O)[C@@H]2O)CC1 [Compound I-146] | ≥ 1 µM | 0.01 to 0.1 µM | ≥ 1 µM | 0.01 to 0.1 µM
11 | CC(O)CN(C(=O)[C@H]1O[C@@H](n2cc(-c3ccn(C)n3)c3c(N)ncnc32)[C@H](O)[C@@H]1O)C1CCN(C)CC1 (some centres unmarked) [Compound I-147] | ≥ 1 µM | ≥ 1 µM | ≥ 1 µM | < 0.01 µM
12 | CC(O)CCN(C(=O)[C@H]1O[C@@H](n2cc(-c3ccn(C)n3)c3c(N)ncnc32)[C@H](O)[C@@H]1O)C1CCN(C)CC1 (some centres unmarked) [Compound I-148] | ≥ 1 µM | ≥ 1 µM | ≥ 1 µM | 0.01 to 0.1 µM
13 | CN1CCC(N(C(=O)[C@H]2O[C@@H](n3cc(-c4ccn(C)n4)c4c(N)ncnc43)[C@H](O)[C@@H]2O)C2CC2)CC1 [Compound I-149] | ≥ 1 µM | 0.01 to 0.1 µM | ≥ 1 µM | < 0.01 µM
14 | Cn1ccc(-c2cn([C@@H]3O[C@H](C(=O)N4CCC[C@@H](NS(C)(=O)=O)C4)[C@@H](O)[C@H]3O)c3ncnc(N)c23)n1 [Compound I-151] | ≥ 1 µM | ≥ 1 µM | ≥ 1 µM | ≥ 1 µM
15 | Cn1ccc(-c2cn([C@@H]3O[C@H](C(=O)NC[C@H]4CC[C@H](O)CC4)[C@@H](O)[C@H]3O)c3ncnc(N)c23)n1 [Compound I-159] | ≥ 1 µM | ≥ 1 µM | ≥ 1 µM | ≥ 1 µM
16 | Cn1ccc(-c2cn([C@@H]3O[C@H](C(=O)N4CCC[C@@H](C(N)=O)C4)[C@@H](O)[C@H]3O)c3ncnc(N)c23)n1 [Compound I-174] | ≥ 1 µM | ≥ 1 µM | ≥ 1 µM | ≥ 1 µM
17 | CN1CCC(N(CCOCCO)C(=O)[C@H]2O[C@@H](n3cc(-c4ccn(C)n4)c4c(N)ncnc43)[C@H](O)[C@@H]2O)CC1 [Compound I-177] | ≥ 1 µM | ≥ 1 µM | ≥ 1 µM | 0.01 to 0.1 µM
18 | Cn1ccc(-c2cn([C@@H]3O[C@H](C(=O)NC4CCN(CCO)CC4)[C@@H](O)[C@H]3O)c3ncnc(N)c23)n1 [Compound I-178] | ≥ 1 µM | 0.1 to 1 µM | ≥ 1 µM | 0.01 to 0.1 µM
19 | CN1CC[C@@H](NC(=O)[C@H]2O[C@@H](n3cc(-c4ccn(C)n4)c4c(N)ncnc43)[C@H](O)[C@@H]2O)C1 [Compound I-184] | ≥ 1 µM | 0.1 to 1 µM | ≥ 1 µM | 0.01 to 0.1 µM
20 | CN1CCC(NC(=O)[C@H]2O[C@@H](n3cc(-c4ccn(C)n4)c4c(N)ncnc43)[C@H](O)[C@@H]2O)CC1=O (some centres unmarked) [Compound I-186] | ≥ 1 µM | ≥ 1 µM | ≥ 1 µM | ≥ 1 µM

— patent US20240051985A1, “METTL3 MODULATORS” (ACCENT THERAPEUTICS, INC., priority 2020, published 2024)
